pIC50: −log10 of the molar value.
Assays:
KRAS G12C protein = target: T1, KRAS G12C protein (Homo sapiens, UniProt P01116, G12C); test: ERK protein phosphorylation assay (p-ERK) in H358 cells; type: cell-based; design: scale not given here; conditions: H358 cells expressing KRAS G12C protein, 3 h incubation with compound; read-out: IC50, inhibiting phosphorylation of KRAS G12C protein-mediated downstream signaling (p-ERK)
T1 construct: H358 cells (ATCC, CRL-5807) expressing KRAS G12C protein; host or cells: H358 (NCI-H358) cells
T1 sequence (P01116 1-188 isoform P01116-2 G12C): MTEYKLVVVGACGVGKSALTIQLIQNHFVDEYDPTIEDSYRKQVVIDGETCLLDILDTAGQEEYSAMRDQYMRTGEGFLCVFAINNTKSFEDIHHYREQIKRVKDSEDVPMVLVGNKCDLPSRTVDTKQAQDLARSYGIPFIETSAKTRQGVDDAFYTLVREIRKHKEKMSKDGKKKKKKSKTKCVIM
Summary of the method: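 After paraformaldehyde fixation and methanol permeabilization, phospho-ERK detected by immunofluorescence read on an Odyssey CLx imager.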

[1] = system: H358 cell line (K-RAS G12C); test: cells; type: cell-based, human; conditions: for pIC50: Homo sapiens, NCI-H358, 96 h, 3D culture, CellTiter-Glo 3D, read on day 4, read-out: H358 (K-RAS G12C) IC50; for Selectivity (fold number of mutant vs. wild type): PC-9 IC50 vs. H358 IC50
Procedure: (§1) a) On day 1, seed cells were placed in T75 a flask. b) On day 3, the medium was taken out and washed once with DPBS. c) Cells were trypsinized with 2 mL TrypLE™ Express enzyme at room temperature (RT) or 37° C. until cells detached. d) 5 mL of fresh medium was added to suspend the cells, and then the suspension was centrifuged at 1000 rpm and room temperature for 5 min. e) The supernatant was discarded, and the cells were resuspended in 5 mL of fresh medium and counted using Countess™ H. f) The cells were seeded back into the T75 flask for further culture or placed into an assay plate for 3D cell proliferation assay.
(§2) The cells were seeded at a density of 600 cells/well in a 384-well plate with 40 μL of medium per well and a final DMSO concentration of 0.5%. b) On day 4, a 3D CTG reagent was added to each well, followed by shaking at room temperature for 1 h. c) The signals were recorded using Envision.
(§3) a) Robustness was examined using 0.5% DMSO and data of blank control medium: H=mean (DMSO); L=mean (medium); SD (H)=STDEV (DMSO); SD (L)=STDEV (medium);
(§4) Y=peak valley value+(peak top value−peak valley value)/(1+10^((Log IC50−X)×HillSlope));
(§5) X: logarithm of compound concentration; Y: percent inhibition (% inhibition); Peak top and peak valley values: the plateau period units are the same as Y; log IC50: the same logarithmic unit as X; HillSlope: slope coefficient or Hill slope.

[2] = system: MIA PaCa-2 cell line (K-RAS G12C); test: cells; type: cell-based; conditions: for pIC50: Homo sapiens, MIA PaCa-2, 96 h, 3D culture, CellTiter-Glo 3D, read on day 4, read-out: MIA PaCa-2 (K-RAS G12C) IC50; for Selectivity (fold number of mutant vs. wild type): PC-9 IC50 vs. MIA PaCa-2 IC50
Procedure: as §1, §2, §3, §4, §5

[3] = system: H1373 cell line (K-RAS G12C); test: cells; type: cell-based; conditions: for pIC50: Homo sapiens, NCI-H1373, 96 h, 3D culture, CellTiter-Glo 3D, read on day 4, read-out: H1373 (K-RAS G12C) IC50; for Selectivity (fold number of mutant vs. wild type): PC-9 IC50 vs. H1373 IC50
Procedure: as §1, §2, §3, §4, §5

[4] = system: PC-9 cell line (K-RAS wild type); test: cells; type: cell-based; conditions: Homo sapiens, PC-9, 96 h; 3D culture, CellTiter-Glo 3D, read on day 4
Procedure: as §1, §2, §3, §4, §5

[5] = system: NCI-H358 tumor (K-RAS G12C mutation); type: in vivo, BALB/c nude mice; conditions: for Day 0 Tumor volume (mm^3) Vaverage ± SEM: Day 0 (at grouping, before administration), 15 mg/kg PO QD group; for Day 21 Tumor volume (mm^3) Vaverage ± SEM / Tumor inhibition rate TGI (%) / Tumor regression: Day 21, 15 mg/kg PO QD; for Tumor regression: animals with regression / group of 8; for Day 0 Body weight (g) Waverage ± SEM: mouse, in vivo, po, 15 mg/kg
Procedure: The cells were digested with trypsin-EDTA twice a week for passaging as per conventional practice. When the cell saturation reached 80%-90% and a required amount was achieved, the cells were collected and counted for later use. […] 5% DMSO/5% Solutol/90% water was used as a blank control. 3) Tumor inoculation and drug administration: BALB/c nude mice, female, 6-8 weeks old, weighing 18-20 g. The experiment started after 3-7 days of adaptive feeding. 0.1 mL of NCI-H358 cells (5×10^6 cells) were inoculated subcutaneously on the right back of each mouse. The mice were grouped for administration when the average tumor volume reached approximately 150 mm^3. The animals were weighed before administration and the tumor volume was measured. Grouping was randomly performed according to the tumor volume.
Animals were monitored daily for health and death, and routine examinations include observation of the effect of tumor growth and drug treatment on the daily performance of the animals, such as behavioral activities, food and water intake, weight changes (measured once every other day), appearance, or other abnormal conditions. Animal mortality and side effects within each group were recorded based on the number of animals in the group.
Tumor diameters were measured 2-3 times weekly using a vernier caliper.
The tumor volume was calculated as follows: […]
where a and b represent the long and short diameters of the tumor, respectively.
The anti-tumor therapeutic effect of the compound was evaluated by tumor growth inhibition rate TGI (%) or relative tumor proliferation rate T/C (%).
TGI (%) was calculated as follows: […]
T/C (%) was calculated as follows: […]
where TRTV represents the relative tumor volume of the treatment group; CRTV represents the relative tumor volume of the solvent control group.
Based on the results of tumor measurement, the relative tumor volume (RTV) was calculated as follows: […]
where V0 represents the average tumor volume measured at the time of grouping and administration (i.e., d0), Vt represents the average tumor volume in a certain measurement, and TRTV and CRTV take the data on the same day.
After the completion of the experiment, tumors were weighed, and the percentage of Tweight/Cweight was calculated, where Tweight and Cweight represent the tumor weights of the treatment group and the solvent control group, respectively.
Data calculation and analysis: T test was employed for comparison between two groups. One-way ANOVA was employed for comparison between three or more groups. If there is a significant difference in F-values, multiple comparisons should be made after ANOVA analysis. All data analyses were performed with SPSS 17.0. p<0.05 was defined as a significant difference.

[6] = Stability test in human plasma; conditions: for Remaining percentage (%) 0 min / Remaining percentage (%) 30 min / Remaining percentage (%) 60 min / Remaining percentage (%) 120 min / Remaining percentage (%) 180 min / Remaining percentage (%) 240 min: human plasma, 37° C.; for half-life at 5 μM: human, plasma
Procedure: To examine the stability of the test compounds in plasma, representative compounds were selected for evaluation.
Preparation of stock solution: a test compound was dissolved in DMSO to prepare a 1 mM stock solution for later use; Propantheline Bromide was dissolved in acetonitrile to prepare a 1 mM stock solution as a positive control for later use.
To each well was added 2 μL of the stock solution of the test compound and the stock solution of the positive control such that the final concentrations were 5 KM and the concentration of the organic solvent was 0.5%. Each compound was prepared in duplicate, followed by incubation at 37° C. 50 μL of samples were taken from the reaction samples in equal amounts at 0, 30, 60, 120, 180 and 240 minutes, and 450 μL of cold acetonitrile containing an internal standard was added to terminate the reaction. […] 100 μL of the supernatants were transferred to a new plate, dilute with ultra-pure water, and analyzed by LC-MS/MS.
Data results were calculated according to peak area ratios.
The percentage of remaining compound for each time point was calculated as follows:
Remaining percentagemin(%)=peak area ratiosmin/peak area ratiomin×100%
where peak area ratios represents the peak area ratio of the test compound to the internal standard compound at t min; peak area ratiomin represents the peak area ratio of the test compound to the internal standard compound at 0 min (initial).

pIC50 (KRAS G12C protein) | pIC50 [1] | pIC50 [2] | pIC50 [3] | pIC50 [4] | Remaining percentage (%) 0 min [6] [%] | Remaining percentage (%) 30 min [6] [%] | Remaining percentage (%) 60 min [6] [%] | Remaining percentage (%) 120 min [6] [%] | Remaining percentage (%) 180 min [6] [%] | Remaining percentage (%) 240 min [6] [%] | half-life at 5 μM [6] [h] | Structure (SMILES) | Selectivity (fold number of mutant vs. wild type) [1] [fold] | Selectivity (fold number of mutant vs. wild type) [2] [fold] | Selectivity (fold number of mutant vs. wild type) [3] [fold] | Day 0 Tumor volume (mm^3) Vaverage ± SEM [5] [mm^3] | Day 21 Tumor volume (mm^3) Vaverage ± SEM [5] [mm^3] | Tumor inhibition rate TGI (%) [5] [%] | Tumor regression [5] | Day 0 Body weight (g) Waverage ± SEM [5] [g]
> 6.00 | 9.26 | 9.31 | 9.17 | 5.32 | 100.00 | 92.80 | 76.27 | 58.94 | 39.27 | 25.75 | 2.03 | [2H]C([2H])([2H])c1cccc2cccc(N3CCc4c(nc(OC[C@@H]5CCCN5C)nc4N4CCN(C(=O)C=C)[C@@H](CC#N)C4)C3)c12 [Compound 1, 2-((S)-1-acryloyl-4-(7-(8-(methyl-d3)naphthalen-1-yl)-2-(((S)-1-methylpyrrolidin-2-yl)methoxy)-5,6,7,8-tetrahydropyrido[3,4-d]pyrimidin-4-yl)piperazin-2-yl)acetonitrile] | 8745 | 9816 | 7074 | 150 ± 10 | 153 ± 14 | 99.5 | 3/8 | 22.5 ± 0.5
> 6.00 | 9.21 | 9.29 | 9.59 | 5.63 | 100.00 | 90.36 | 77.31 | 57.19 | 36.19 | 27.49 | 2.06 | [2H]C([2H])([2H])N1CCC[C@H]1COc1nc2c(c(N3CCN(C(=O)C=C)[C@@H](CC#N)C3)n1)CCN(c1cccc3cccc(C)c13)C2 [Compound 42, 2-((S)-1-acryloyl-4-(7-(8-methylnaphthalen-1-yl)-2-(((S)-1-(methyl-d3)pyrrolidin-2-yl)methoxy)-5,6,7,8-tetrahydropyrido[3,4-d]pyrimidin-4-yl)piperazin-2-yl)acetonitrile] | 3823 | 4647 | 9115 | 150 ± 9 | 151 ± 18 | 99.8 | 4/8 | 22.8 ± 0.6

— US20230257374A1, “NOVEL KRAS G12C PROTEIN INHIBITOR, PREPARATION METHOD THEREFOR, AND USE THEREOF” (INNOVENT BIOLOGICS (SUZHOU) CO., LTD., priority 2019, published 2023)
